Data: article PMC10531337 (International Journal of Molecular Sciences, 2023)

Target: T1, epidermal growth factor receptor (EGFR) (Homo sapiens, UniProt P00533)
T1 construct: extracellular domain
Assay: SPR (Biacore S200, EGFR amine-coupled to CM5 chip, […] model); also BLI (Octet RED96) at […]
Type: binding

T1 sequence (P00533 25-645 limits assumed): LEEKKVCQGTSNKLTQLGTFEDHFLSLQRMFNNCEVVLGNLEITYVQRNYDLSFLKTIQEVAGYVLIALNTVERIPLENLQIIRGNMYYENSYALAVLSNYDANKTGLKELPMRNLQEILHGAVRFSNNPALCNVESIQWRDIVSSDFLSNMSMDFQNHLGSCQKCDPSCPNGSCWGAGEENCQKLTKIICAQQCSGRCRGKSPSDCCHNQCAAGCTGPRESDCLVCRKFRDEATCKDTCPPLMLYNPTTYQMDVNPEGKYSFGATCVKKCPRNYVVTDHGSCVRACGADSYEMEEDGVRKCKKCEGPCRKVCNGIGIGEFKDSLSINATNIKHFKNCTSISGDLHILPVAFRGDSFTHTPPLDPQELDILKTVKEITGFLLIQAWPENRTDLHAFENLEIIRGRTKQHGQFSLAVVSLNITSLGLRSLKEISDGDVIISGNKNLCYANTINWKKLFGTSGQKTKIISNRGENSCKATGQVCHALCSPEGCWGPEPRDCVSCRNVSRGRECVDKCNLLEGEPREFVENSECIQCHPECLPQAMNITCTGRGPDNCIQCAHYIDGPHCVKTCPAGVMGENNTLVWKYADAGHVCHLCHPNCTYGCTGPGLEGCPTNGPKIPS

Kd: 7.14 µM
Structure (SMILES): O=C(O[C@@H]1Cc2c(O)cc(O)cc2O[C@@H]1c1cc(O)c(O)c(O)c1-c1c([C@H]2Oc3cc(O)cc(O)c3C[C@H]2OC(=O)c2cc(O)c(O)c(O)c2)cc(O)c(O)c1O)c1cc(O)c(O)c(O)c1 [compound 3, theasinensin A]
